Values of other authors, collected in patent publication US20080032891A1, “DEFOLIANT COMPOSITION AND METHOD” (ARYSTA L[…] AMERICA CORPORATION, priority 2006, published 2008).

| SMILES | solubility in water |
| --- | --- |
| CN(C)C(=O)Nc1ccc(Cl)c(Cl)c1 [diuron, 3-(3,4-dichlorophenyl)-1,1-dimethylurea] | insoluble in water |
| O=C(Nc1ccccc1)Nc1cnns1 [Thidiazuron, 1-phenyl-3-(1,2,3-thiadiazol-5-yl)-urea] | insoluble in water |
